Results taken from paper doi:10.1101/706168v1 (biorxiv, 2019).

Experiments:
Cav1.2 = Cav1.2 (Homo sapiens, UniProt Q13936); assay: cell-based
Kv1.5 = Kv1.5 (Homo sapiens, UniProt P22460); assay: cell-based
[1] = target: TASK-1 (K2P3.1), wild type (Homo sapiens, UniProt O14649); assay: two-electrode voltage clamp, Xenopus oocytes; format: cell-based
TRPA1 = TRPA1 (Homo sapiens, UniProt O75762); assay: cell-based
TRPC5 = target: T1, TRPC5 (Homo sapiens, UniProt Q9UL62); assay: cell-based
T1 sequence (Q9UL62 1-973): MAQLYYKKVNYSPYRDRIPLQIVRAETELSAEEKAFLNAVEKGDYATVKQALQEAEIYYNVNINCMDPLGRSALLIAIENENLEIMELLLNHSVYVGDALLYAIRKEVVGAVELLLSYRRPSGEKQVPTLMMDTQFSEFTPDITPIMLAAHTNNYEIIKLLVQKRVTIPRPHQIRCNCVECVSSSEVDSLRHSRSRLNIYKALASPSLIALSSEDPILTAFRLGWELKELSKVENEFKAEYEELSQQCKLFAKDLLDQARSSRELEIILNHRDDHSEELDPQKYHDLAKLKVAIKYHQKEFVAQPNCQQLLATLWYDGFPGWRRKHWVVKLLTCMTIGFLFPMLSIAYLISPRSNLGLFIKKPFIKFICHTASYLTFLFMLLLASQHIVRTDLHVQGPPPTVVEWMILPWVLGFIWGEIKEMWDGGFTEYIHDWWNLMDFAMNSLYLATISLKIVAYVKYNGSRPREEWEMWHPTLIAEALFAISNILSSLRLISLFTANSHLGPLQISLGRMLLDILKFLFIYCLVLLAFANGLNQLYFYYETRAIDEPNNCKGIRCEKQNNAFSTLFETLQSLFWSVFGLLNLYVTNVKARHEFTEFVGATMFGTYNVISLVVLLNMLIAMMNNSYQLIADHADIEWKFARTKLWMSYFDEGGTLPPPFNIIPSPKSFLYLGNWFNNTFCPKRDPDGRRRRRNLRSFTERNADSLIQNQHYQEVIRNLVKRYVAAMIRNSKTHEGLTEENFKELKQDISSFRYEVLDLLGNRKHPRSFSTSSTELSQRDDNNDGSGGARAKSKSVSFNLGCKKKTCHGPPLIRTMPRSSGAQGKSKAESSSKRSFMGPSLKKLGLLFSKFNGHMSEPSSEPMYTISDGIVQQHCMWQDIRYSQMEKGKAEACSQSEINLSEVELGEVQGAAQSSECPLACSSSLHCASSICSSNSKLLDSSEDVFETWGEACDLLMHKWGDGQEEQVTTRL

TRESK = target: T2, TRESK (Homo sapiens, UniProt Q7Z418); assay: cell-based
T2 sequence (Q7Z418 1-384): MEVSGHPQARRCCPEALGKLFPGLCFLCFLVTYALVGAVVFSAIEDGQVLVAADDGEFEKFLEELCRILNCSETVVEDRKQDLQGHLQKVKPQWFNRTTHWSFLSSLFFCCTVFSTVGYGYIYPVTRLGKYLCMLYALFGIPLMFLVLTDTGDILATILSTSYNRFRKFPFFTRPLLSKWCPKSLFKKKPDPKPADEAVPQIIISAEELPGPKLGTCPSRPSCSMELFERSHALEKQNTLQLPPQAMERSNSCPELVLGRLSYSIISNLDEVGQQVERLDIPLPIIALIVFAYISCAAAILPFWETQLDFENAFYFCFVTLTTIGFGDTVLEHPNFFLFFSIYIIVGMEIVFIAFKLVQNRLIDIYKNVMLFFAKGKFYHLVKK

Kv4.3 = target: T3, Kv4.3 (Homo sapiens, UniProt Q9UK17); assay: cell-based
T3 sequence (Q9UK17 1-655): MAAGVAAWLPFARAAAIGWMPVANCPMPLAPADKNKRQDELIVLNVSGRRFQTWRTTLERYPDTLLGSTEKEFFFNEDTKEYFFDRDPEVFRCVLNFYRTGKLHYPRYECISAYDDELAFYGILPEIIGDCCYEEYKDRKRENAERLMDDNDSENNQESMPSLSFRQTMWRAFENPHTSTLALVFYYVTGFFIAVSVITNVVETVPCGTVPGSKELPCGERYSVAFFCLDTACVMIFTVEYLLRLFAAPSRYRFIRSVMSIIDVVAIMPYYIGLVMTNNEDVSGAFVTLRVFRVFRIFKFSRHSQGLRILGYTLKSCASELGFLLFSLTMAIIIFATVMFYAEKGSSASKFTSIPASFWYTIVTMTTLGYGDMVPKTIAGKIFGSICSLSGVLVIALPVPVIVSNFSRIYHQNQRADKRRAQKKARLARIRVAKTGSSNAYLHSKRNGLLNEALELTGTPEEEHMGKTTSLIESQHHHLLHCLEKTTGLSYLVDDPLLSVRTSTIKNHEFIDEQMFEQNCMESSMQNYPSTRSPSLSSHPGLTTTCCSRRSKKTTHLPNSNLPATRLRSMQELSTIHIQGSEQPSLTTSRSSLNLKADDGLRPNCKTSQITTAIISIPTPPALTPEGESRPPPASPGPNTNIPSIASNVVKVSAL

Sequence of TRPA1 (O75762 whole entry): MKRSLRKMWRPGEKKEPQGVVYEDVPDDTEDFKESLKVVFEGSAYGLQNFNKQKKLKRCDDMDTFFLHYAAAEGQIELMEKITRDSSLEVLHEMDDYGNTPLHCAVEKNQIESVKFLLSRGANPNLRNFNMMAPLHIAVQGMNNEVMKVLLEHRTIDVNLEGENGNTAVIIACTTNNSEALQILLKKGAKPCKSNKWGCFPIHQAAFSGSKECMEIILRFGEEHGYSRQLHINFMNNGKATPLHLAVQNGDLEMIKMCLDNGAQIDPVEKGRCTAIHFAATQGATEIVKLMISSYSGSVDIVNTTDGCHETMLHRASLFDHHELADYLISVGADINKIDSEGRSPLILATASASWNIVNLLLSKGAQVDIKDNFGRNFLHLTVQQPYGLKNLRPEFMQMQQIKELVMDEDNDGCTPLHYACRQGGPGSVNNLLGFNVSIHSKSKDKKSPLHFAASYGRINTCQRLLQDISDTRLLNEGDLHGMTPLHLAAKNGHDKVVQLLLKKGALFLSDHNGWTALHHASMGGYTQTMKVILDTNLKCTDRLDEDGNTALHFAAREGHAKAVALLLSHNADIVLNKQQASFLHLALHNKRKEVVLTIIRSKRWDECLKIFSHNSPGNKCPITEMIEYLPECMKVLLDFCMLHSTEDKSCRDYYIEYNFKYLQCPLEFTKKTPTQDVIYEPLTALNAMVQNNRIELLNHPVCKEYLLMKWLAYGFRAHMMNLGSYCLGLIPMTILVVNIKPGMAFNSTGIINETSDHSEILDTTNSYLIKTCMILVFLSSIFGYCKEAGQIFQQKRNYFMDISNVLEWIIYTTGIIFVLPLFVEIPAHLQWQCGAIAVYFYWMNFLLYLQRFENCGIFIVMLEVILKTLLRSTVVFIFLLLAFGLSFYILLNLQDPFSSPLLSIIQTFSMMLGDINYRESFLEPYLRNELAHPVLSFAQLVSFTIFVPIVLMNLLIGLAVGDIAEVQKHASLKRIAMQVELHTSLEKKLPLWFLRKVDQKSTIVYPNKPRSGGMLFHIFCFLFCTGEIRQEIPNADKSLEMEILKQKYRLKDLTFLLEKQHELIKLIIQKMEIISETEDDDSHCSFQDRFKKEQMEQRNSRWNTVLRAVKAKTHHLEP
Sequence of Cav1.2 (Q13936 whole entry): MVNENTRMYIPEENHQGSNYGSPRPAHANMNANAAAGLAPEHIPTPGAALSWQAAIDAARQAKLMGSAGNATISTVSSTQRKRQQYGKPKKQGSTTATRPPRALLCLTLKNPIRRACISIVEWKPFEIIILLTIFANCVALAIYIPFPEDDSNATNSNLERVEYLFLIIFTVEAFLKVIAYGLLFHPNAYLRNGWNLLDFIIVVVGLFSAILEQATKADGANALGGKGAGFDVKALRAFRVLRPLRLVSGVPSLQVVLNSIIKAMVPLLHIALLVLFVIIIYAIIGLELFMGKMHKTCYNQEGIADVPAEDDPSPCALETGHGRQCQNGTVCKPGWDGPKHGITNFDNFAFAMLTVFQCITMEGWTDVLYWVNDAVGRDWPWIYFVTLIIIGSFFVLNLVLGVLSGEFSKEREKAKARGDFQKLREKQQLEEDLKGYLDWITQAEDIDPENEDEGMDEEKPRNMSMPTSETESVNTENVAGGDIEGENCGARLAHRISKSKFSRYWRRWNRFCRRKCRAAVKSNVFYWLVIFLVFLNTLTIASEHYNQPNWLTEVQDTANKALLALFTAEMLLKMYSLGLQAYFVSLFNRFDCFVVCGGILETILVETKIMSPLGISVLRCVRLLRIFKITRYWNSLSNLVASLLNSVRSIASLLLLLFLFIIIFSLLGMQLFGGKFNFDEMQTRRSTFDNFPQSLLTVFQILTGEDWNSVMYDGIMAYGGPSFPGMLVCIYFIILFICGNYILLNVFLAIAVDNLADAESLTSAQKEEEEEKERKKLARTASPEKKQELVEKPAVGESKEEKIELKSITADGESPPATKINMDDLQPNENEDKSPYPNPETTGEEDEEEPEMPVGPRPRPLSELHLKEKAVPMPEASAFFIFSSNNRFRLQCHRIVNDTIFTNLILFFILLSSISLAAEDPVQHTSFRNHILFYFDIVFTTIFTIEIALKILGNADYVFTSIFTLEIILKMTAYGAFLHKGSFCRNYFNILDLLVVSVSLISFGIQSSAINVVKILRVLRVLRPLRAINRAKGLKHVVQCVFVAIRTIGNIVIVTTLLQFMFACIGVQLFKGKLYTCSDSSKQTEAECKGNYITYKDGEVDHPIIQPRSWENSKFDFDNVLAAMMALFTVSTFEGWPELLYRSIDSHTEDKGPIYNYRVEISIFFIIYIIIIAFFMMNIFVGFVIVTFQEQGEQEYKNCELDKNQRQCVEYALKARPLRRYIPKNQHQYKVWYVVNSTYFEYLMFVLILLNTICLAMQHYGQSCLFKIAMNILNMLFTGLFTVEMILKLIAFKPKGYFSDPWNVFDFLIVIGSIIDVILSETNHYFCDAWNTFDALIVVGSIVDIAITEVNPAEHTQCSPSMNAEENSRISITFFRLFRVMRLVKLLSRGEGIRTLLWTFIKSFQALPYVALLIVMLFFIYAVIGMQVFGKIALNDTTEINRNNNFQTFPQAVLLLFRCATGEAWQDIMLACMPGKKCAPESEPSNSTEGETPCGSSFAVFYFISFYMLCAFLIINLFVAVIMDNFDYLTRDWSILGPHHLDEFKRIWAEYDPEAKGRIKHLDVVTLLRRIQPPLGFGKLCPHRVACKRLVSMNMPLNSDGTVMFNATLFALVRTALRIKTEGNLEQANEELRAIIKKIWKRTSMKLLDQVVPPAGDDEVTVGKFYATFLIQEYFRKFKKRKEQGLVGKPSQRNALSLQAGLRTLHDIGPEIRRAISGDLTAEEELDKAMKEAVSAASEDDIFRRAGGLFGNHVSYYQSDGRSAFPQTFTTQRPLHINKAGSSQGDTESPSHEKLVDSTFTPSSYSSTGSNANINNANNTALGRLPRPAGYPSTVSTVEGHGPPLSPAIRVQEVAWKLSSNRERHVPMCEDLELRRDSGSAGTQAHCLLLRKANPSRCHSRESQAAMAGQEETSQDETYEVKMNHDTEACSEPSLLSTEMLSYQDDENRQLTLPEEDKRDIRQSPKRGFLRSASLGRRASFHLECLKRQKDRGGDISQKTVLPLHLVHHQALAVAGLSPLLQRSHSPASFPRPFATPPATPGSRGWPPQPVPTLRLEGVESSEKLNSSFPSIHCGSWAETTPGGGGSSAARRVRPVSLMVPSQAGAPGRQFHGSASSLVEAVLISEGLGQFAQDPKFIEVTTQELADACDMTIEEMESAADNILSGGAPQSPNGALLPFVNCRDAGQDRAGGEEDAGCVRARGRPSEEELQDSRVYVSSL
Sequence of Kv1.5 (P22460 whole entry): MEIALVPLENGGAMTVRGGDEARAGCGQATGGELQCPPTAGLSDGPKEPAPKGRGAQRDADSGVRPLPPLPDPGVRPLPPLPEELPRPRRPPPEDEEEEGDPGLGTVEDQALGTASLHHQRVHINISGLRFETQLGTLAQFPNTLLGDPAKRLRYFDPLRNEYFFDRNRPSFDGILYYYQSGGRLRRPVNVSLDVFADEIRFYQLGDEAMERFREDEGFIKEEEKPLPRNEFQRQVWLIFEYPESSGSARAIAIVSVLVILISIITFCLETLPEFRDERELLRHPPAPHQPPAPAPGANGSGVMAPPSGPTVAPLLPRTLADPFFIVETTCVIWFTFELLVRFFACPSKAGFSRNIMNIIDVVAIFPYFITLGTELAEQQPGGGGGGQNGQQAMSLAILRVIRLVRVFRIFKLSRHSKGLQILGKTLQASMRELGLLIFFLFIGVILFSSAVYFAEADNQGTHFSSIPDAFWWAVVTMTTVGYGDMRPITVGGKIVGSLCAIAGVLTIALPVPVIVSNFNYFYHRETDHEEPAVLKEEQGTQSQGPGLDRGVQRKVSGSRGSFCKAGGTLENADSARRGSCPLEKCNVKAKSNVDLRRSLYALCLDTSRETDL
Sequence of TASK-1 (K2P3.1), wild type (O14649 whole entry): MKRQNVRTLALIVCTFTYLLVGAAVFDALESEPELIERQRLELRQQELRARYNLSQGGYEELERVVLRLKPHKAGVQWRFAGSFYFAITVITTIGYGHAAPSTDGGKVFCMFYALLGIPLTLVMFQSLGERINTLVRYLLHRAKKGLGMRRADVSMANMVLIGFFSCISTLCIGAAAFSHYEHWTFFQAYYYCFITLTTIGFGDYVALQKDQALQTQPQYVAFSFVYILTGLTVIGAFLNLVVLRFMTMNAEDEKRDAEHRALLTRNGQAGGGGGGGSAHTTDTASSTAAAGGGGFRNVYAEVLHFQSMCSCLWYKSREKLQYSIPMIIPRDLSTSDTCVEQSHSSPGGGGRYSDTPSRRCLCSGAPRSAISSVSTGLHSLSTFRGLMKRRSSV

IC50 (Kv1.5): 19 µM
EC50 [1]: 0.0095 µM
IC50 (TRPA1): > 30 µM
IC50 (TRPC5): > 30 µM
IC50 (TRESK): > 30 µM
IC50 (Kv4.3): > 10 µM
SMILES: O=C(c1ccccc1F)N1CCN(Cc2c(-c3ccc(Br)cc3)nc3ccccn23)CC1 [BAY 1000493, (4-{[2-(4-bromophenyl)imidazo[1,2-a]pyridin-3-yl]methyl}vpiperazin-1-yl)(2-fluorophenyl)methanone]
IC50 (Cav1.2): > 30 µM
